Values quoted from earlier work, collected in article PMC3065210 (Inorganic Chemistry, 2011).
Like-named read-outs stand apart in the source and are kept apart here. Values belong to the molecule of their own block, whether it stands above or below them.

Tests used:
[1] = not given; remark: listed apart in the source

acid inertness half-life (5 M HCl, 90 °C): more than 6 d
SMILES: O=C([O-])CN1CCCN2CCN(CCCN(CC(=O)[O-])CC2)CC1.[Cu+2] [Cu-CB-TE2A]

SMILES: C1CNCCN2CCNCCN(C1)CC2.[Cu+2] [Cu-CB-homocyclen]
acid inertness half-life (1 M HCl, 30 °C): 4.8 h

accumulation in the liver ([1]; 24 h p.i., previously published data (text says mice)): 0.024 ± 0.002 %ID/g
activity in blood ([1]; rats, 24 h, previously published data): 0.011 ± 0.004 %ID/g
tissue associated radioactivity in kidneys ([1]; rats, 24 h p.i., previously published data): 0.064 ± 0.007 %ID/g
liver clearance (percent reduction) ([1]; rats, at 22 or 24 h PI, from published data): 69.5%
kidney clearance ([1]; rats, out to 22 or 24 h PI, from published data): 95.6%
SMILES: O=C([O-])CN1CCN2CCN(CC1)CCN(CC(=O)[O-])CC2.[64Cu+2] [^64Cu-CB-DO2A]
